In PubChem BioAssay AID248 (DTP/NCI, 2004):
Inconclusive results and toxic doses are left out. No stated cut-off is given here; in the data, active means T/C of 150% or more; inactive means T/C below 125%.

System: L1210 leukemia ip in BDF1 mice, survival T/C
Test: NCI In Vivo Anticancer Drug Screen. Data for tumor model L1210 Leukemia (intraperitoneal) in B6D2F1 (BDF1) mice
Conditions: endpoint: mean survival time, higher = longer survival
In short: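 Antitumor effect is assessed in tumor-bearing animals. Survival in the compound arm is compared with a vehicle-dosed control arm and expressed as their quotient.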

[1] = dose: 100.0 mg/kg/injection, schedule: Q01DX001 (ip), vehicle: saline
[2] = dose: 200.0 mg/kg/injection, schedule: Q01DX001 (ip), vehicle: saline
[3] = dose: 100.0 mg/kg/injection, schedule: Q04DX002 (ip), vehicle: Klucel (hydroxypropylcellulose) (HPC)
[4] = dose: 200.0 mg/kg/injection, schedule: Q04DX002 (ip), vehicle: Klucel (hydroxypropylcellulose) (HPC)
[5] = dose: 400.0 mg/kg/injection, schedule: Q04DX002 (ip), vehicle: Klucel (hydroxypropylcellulose) (HPC)

Measured: T/C

O=C(CCN1CCOCC1)c1csc2ccccc12
inactive: dose: 100.0 mg/kg/injection, schedule: Q01DX001 (ip), vehicle: carboxymethylcellulose (CMC) 102 % of control | dose: 200.0 mg/kg/injection, schedule: Q01DX001 (ip), vehicle: carboxymethylcellulose (CMC) 102 % of control | dose: 400.0 mg/kg/injection, schedule: Q01DX001 (ip), vehicle: carboxymethylcellulose (CMC) 96 % of control

CNC(=O)n1cncn1
inactive: [1] 95 % of control | dose: 100.0 mg/kg/injection, schedule: Q04DX003 (ip), vehicle: saline 101 % of control | [2] 93 % of control | dose: 200.0 mg/kg/injection, schedule: Q04DX003 (ip), vehicle: saline 95 % of control | dose: 400.0 mg/kg/injection, schedule: Q01DX001 (ip), vehicle: saline 95 % of control

N#CC1C(=O)NC(=O)C(C#N)C12CCCCC2 (stereo unspecified)
inactive: [1] 106 % of control | dose: 100.0 mg/kg/injection, schedule: Q01DX009 (ip), vehicle: saline with Tween-80 101 % of control | [2] 106 % of control | dose: 200.0 mg/kg/injection, schedule: Q01DX009 (ip), vehicle: saline with Tween-80 97 % of control

CC(C)Cc1cc(C#N)cc(C(C)(C)C)c1O
inactive: [3] 100 % of control | [4] 100 % of control | [5] 103 % of control

CCSC1=NCCS1
inactive: dose: 9.5 mg/kg/injection, schedule: Q01DX001 (ip), vehicle: other 103 % of control | dose: 19.0 mg/kg/injection, schedule: Q01DX001 (ip), vehicle: other 112 % of control | dose: 38.0 mg/kg/injection, schedule: Q01DX001 (ip), vehicle: other 103 % of control | dose: 75.0 mg/kg/injection, schedule: Q01DX001 (ip), vehicle: other 112 % of control | dose: 150.0 mg/kg/injection, schedule: Q01DX001 (ip), vehicle: other 101 % of control

O=C(N=Nc1c(NNC(=O)c2ccc([N+](=O)[O-])cc2)c(O)c2ccccc2c1O)c1ccc([N+](=O)[O-])cc1
inactive: dose: 75.0 mg/kg/injection, schedule: Q04DX003 (ip), vehicle: saline 102 % of control | dose: 150.0 mg/kg/injection, schedule: Q04DX003 (ip), vehicle: saline 89 % of control | dose: 300.0 mg/kg/injection, schedule: Q04DX003 (ip), vehicle: saline 94 % of control

Cc1ccc(C(=O)N/N=C/c2ccc3ccccc3c2)cc1
inactive: [3] 95 % of control | [4] 103 % of control | [5] 95 % of control
